We go through 39 molecules from patent publication US20160311791A1, “NOVEL TRICYCLIC CALCIUM SENSING RECEPTOR ANTOGONISTS FOR THE TREATMENT OF OSTEOPOSOSIS” (MERCK SHARP & DOHME CORP., priority 2013, published 2016).

The target in this assay is T1, human CaSR (Homo sapiens, UniProt P41180).
T1 sequence (P41180 20-1078): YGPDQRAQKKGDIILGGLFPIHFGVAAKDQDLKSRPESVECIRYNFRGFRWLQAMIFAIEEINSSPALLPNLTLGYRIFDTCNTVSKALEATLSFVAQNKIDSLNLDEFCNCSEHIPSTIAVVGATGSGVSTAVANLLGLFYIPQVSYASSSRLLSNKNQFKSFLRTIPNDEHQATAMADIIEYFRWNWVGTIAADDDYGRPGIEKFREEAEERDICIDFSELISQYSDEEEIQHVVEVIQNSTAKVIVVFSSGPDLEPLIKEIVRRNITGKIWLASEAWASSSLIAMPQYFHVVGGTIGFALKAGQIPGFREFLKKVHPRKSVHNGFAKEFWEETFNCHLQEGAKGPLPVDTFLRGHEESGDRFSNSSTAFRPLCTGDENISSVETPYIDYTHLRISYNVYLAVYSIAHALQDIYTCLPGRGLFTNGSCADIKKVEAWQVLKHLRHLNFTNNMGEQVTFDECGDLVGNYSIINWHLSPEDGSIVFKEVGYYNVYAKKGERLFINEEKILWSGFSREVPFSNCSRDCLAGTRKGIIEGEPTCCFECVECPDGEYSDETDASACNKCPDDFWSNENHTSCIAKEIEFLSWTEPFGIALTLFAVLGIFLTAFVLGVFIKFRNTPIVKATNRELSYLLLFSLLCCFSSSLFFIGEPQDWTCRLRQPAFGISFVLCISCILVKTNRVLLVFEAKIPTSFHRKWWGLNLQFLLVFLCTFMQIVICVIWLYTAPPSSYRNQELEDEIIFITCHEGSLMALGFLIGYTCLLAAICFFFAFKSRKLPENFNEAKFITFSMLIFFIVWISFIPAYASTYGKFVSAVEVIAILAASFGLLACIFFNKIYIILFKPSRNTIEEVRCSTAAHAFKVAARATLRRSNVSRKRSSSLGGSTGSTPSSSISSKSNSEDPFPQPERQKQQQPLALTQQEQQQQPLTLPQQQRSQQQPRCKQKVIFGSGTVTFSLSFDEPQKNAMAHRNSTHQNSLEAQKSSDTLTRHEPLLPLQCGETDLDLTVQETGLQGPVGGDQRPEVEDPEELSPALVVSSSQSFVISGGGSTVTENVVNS
Briefly: CaSR FLIPR assay (calcilytic activity). Type of assay: cell-based. Set-up: expressed in transfected cells. Conditions: HEK293 cells stably expressing human recombinant CaSR; 1 mM CaCl2 agonist; Tables 1-24; read-out: FLIPR ASSAY IC50. The protocol:
Procedures for CaSR FLIPR Assay
Calcilytic activity of the compound is measured in HEK293 cells stably expressing human recombinant CaSR (HEK-CaSR) using a FLIPR^TETRA device (Molecular Devices, Sunnyvale, Calif.) according to the manufacturer's directions. […] On the day of the assay, one vial of FLIPR Calcium 4 Assay Kit reagent Component A was equilibrated to room temperature. The content of the Component A vial was diluted by adding 10 ml dilution buffer (2×loading dye). The sample was mixed by vortexing (1-2 minutes) until the contents of the vial dissolved. The Component A vial mixture was diluted with 10 ml dilution buffer. Media was aspirated from the cells and 80 μl of loading buffer was added to each well. Plates were incubated for 1 hour at 37° C. and then placed at room temperature for 10 minutes. A two-stage method of generating 10-point serial dilutions was used. Compound was serially diluted in 100% DMSO (10 point, 3-fold dilution of each compound from 2 mM in 100% DMSO). 3 μl of serially diluted compound was transferred into a second assay microplate that contained 97 μl of TETRA dilution buffer (20 mM HEPES pH7.4, 1×HBSS without Ca and Mg, 0.4 mM CaCl2, 0.4 mM MgSO4, 0.5 mM MgCl2) to create the intermediate dilution plate. After reading the base line, the compounds in 0.5% DMSO in dilution buffer were added to their respective wells as 20 μl aliquots at 6×the final drug concentration. The fluorescence signals were then read. Subsequently, 20 μl of 3.6 mM of CaCl2 agonist (1 mM final concentration) was added to each well. For background, 20 μl of TETRA dilution buffer was added instead. The protocol consisted of a pre-addition read of 10 frames (10×1 frame/sec), a post 1st addition read of 100 frames (60×1 frame/sec, 40×1 frame/3 sec), pause 3 min, a post 2nd addition read of 100 frames (60×1 frame/sec, 40×1 frame/3 sec) on a FLIPR^TETRA Plate Reader.

In the case of `Cc1ccc([C@@H](C)OC[C@H](O)CNC(C)(C)Cc2cc(F)c(F)cc2F)c2c1O[C@@H]1[C@@H](C(=O)O)[C@H]21` [Example 8-21], the IC50 came to 99 nM.

`CSc1ccc(CC(C)(C)NC[C@@H](O)CO[C@H](C)c2ccc(C)c3c2[C@@H]2[C@H](O3)[C@H]2C(=O)O)cc1C` [Example 8-34]: the IC50 amounted to 82 nM.

On to `CC(OC[C@H](O)CNC(C)(C)Cc1ccc2ccccc2c1)c1ccc2c(c1)C1C(O2)C1C(=O)O` (stereo partly drawn) [Example 21-1], for which the IC50 is 2720 nM.

For the molecule `CC(C)(Cc1ccc2ccccc2c1)NC[C@@H](O)COc1ccc2c(c1)C1C(O2)C1C(=O)O` (stereo partly drawn) [Example 22-1], the IC50 stood at 3550 nM.

In the case of `C[C@@H](OC[C@H](O)CNC(C)(C)Cc1ccc([S+](C)[O-])cc1)c1cccc2c1O[C@@H]1[C@@H](C(=O)O)[C@H]21` (stereo partly drawn) [Example 1-16], the IC50 was greater than 10000 nM.

Consider `Cc1ccc([C@@H](C)OC[C@H](O)CNC(C)(C)CSCc2ccccc2)c2c1O[C@@H]1[C@@H](C(=O)O)[C@H]21` [Example 8-29], for which the IC50 is 500 nM.

Consider `COc1ccc(CC(C)(C)NC[C@@H](O)CO[C@H](C)c2cccc3c2[C@@H]2[C@H](O3)[C@H]2C(=O)O)c(F)c1` [Example 5-11], for which the IC50 turned out to be 108 nM.

As for `Cc1ccc([C@@H](C)OC[C@H](O)CNC(C)(C)Cc2ccc3ncccc3c2)c2c1O[C@H]1C2[C@@H]1C(=O)O` (stereo partly drawn) [Example 8-25], the IC50 was determined as 460 nM.

On to `C[C@@H](OC[C@H](O)CNC(C)(C)Cc1ccc2ccccc2c1)c1cc(Cl)cc2c1O[C@@H]1[C@@H](C(=O)O)[C@H]21` [Example 20-1], for which the IC50 came out at 20 nM.

In the case of `C[C@@H](OC[C@H](O)CNC(C)(C)Cc1ccc2occc2c1)c1cccc2c1[C@@H]1[C@H](O2)[C@H]1C(=O)O` [Example 5-6], the IC50 was determined as 137 nM.

As for `Cc1ccc([C@@H](C)OC[C@H](O)CNC(C)(C)CC2Cc3ccccc3C2)c2c1O[C@H]1[C@H](C(=O)O)[C@@H]21` [Example 9-3], the IC50 was 46 nM.

Turning to `C[C@@H](OC[C@H](O)CNC(C)(C)Cc1ccc([S+](C)[O-])c(F)c1)c1cccc2c1[C@@H]1[C@H](O2)[C@H]1C(=O)O` (stereo partly drawn) [Example 5-15], the IC50 was greater than 10000 nM.

In the case of `Cc1cc(Cl)c([C@@H](C)OC[C@H](O)CNC(C)(C)Cc2ccc3c(c2)OCCO3)c2c1O[C@@H]1[C@@H](C(=O)O)[C@H]21` [Example 16-4], the IC50 turned out to be 41 nM.

`Cc1ccc([C@@H](C)OC[C@H](O)CNC(C)(C)CCSc2ccc(F)cc2)c2c1O[C@@H]1[C@@H](C(=O)O)[C@H]21` [Example 8-31]: the IC50 is 65 nM.

Turning to `C[C@@H](OC[C@H](O)CNC(C)(C)Cc1ccc2c(c1)CCC2)c1cccc2c1[C@@H]1[C@H](O2)[C@H]1C(=O)O` [Example 5-7], the IC50 was 25 nM.

On to `C[C@@H](OC[C@H](O)CNC(C)(C)Cc1ccc(Cl)c(Cl)c1)c1cccc2c1[C@@H]1[C@H](O2)[C@H]1C(=O)O` [Example 5-12], for which the IC50 amounted to 39 nM.

As for `C[C@@H](OC[C@H](O)CNC(C)(C)CCSc1ccccc1)c1cccc2c1[C@@H]1[C@H](O2)[C@H]1C(=O)O` [Example 5-17], the IC50 came to 150 nM.

In the case of `Cc1ccc([C@@H](C)OC[C@H](O)CNC(C)(C)Cc2ccc3sccc3c2)c2c1O[C@@H]1[C@@H](C(=O)O)[C@H]21` [Example 8-12], the IC50 worked out at 10 nM.

Consider `C[C@@H](OC[C@H](O)CNC(C)(C)CC1Cc2ccccc2C1)c1cccc2c1O[C@H]1[C@H](C(=O)O)[C@@H]21` [Example 2-3], for which the IC50 is 307 nM.

For `CSc1ccc(CC(C)(C)NC[C@@H](O)CO[C@H](C)c2ccc(C)c3c2[C@@H]2[C@H](O3)[C@H]2C(=O)O)cc1Cl` [Example 8-33], the IC50 was 30 nM.

Take `Cc1ccc([C@@H](C)OC[C@H](O)CNC(C)(C)Cc2ccc(Cl)c(F)c2)c2c1O[C@@H]1[C@@H](C(=O)O)[C@H]21` [Example 8-2]: the IC50 stood at 58.5 nM.

Turning to `Cc1ccc([C@@H](C)OC[C@H](O)CN2CCCC2Cc2ccccc2)c2c1O[C@@H]1[C@@H](C(=O)O)[C@H]21` (stereo partly drawn) [Example 8-8], the IC50 stood at 489 nM.

For the molecule `Cc1ccc(CC(C)(C)NC[C@@H](O)CO[C@H](C)c2cccc3c2O[C@@H]2[C@@H](C(=O)O)[C@H]32)cc1C` [Example 1-5], the IC50 stood at 230 nM.

For `C[C@@H](OC[C@H](O)CNC(C)(C)COCc1ccccc1)c1cccc2c1O[C@H]1[C@H](C(=O)O)[C@@H]21` [Example 2-5], the IC50 is 4220 nM.

On to `COc1ccc(CC(C)(C)NC[C@@H](O)CO[C@H](C)c2ccc(C)c3c2[C@H]2[C@@H](O3)[C@@H]2C(=O)O)cc1F` [Example 9-5], for which the IC50 is 224 nM.

For the molecule `C[C@@H](OC[C@H](O)CNC(C)(C)CC1Cc2ccccc2C1)c1cccc2c1[C@@H]1[C@H](O2)[C@H]1C(=O)O` [Example 5-3], the IC50 was 35.5 nM.

For the molecule `COc1ccc(CC(C)(C)NC[C@@H](O)CO[C@H](C)c2cccc3c2O[C@@H]2[C@@H](C(=O)O)[C@H]32)c(Cl)c1` [Example 1-19], the IC50 turned out to be 170 nM.

Consider `C[C@@H](OC[C@H](O)CNC(C)(C)Cc1ccc(Cl)c(Cl)c1)c1cccc2c1O[C@@H]1[C@@H](C(=O)O)[C@H]21` [Example 1-13], for which the IC50 is 39 nM.

Regarding `Cc1ccc([C@@H](C)OC[C@H](O)CNC(C)(C)CCSc2ccccc2)c2c1O[C@@H]1[C@@H](C(=O)O)[C@H]21` [Example 8-30], the IC50 turned out to be 50 nM.

With `Cc1ccc([C@@H](C)OC[C@H](O)CNC2(Cc3ccc4ccccc4c3)CCC2)c2c1O[C@H]1[C@H](C(=O)O)[C@@H]21` [Example 9-8], the half-inhibitory concentration (IC50) is greater than 10000 nM.

For the molecule `C[C@@H](OC[C@H](O)CNC(C)(C)Cc1ccc2ccccc2c1)c1cccc2c1O[C@@H]1[C@@H](C(=O)NS(=O)(=O)C3(C)CC3)[C@H]21` [Example 4-1], the IC50 amounted to 60 nM.

For the molecule `C[C@@H](OC[C@H](O)CNC(C)(C)Cc1ccc2ccccc2c1)c1cccc2c1O[C@H]1[C@H](C(=O)O)[C@@H]21` [Example 2-1], the IC50 stood at 132 nM.

Take `C[C@@H](OC[C@H](O)CNC(C)(C)Cc1ccc2ccccc2c1)c1cccc2c1[C@@H]1[C@H](C2)[C@H]1C(=O)O` [Example 13-1]: the IC50 amounted to 28 nM.

For `Cc1ccc(CC(C)(C)NC[C@@H](O)CO[C@H](C)c2cccc3c2O[C@@H]2[C@@H](C(=O)O)[C@H]32)cc1F` [Example 1-4], the IC50 was 78 nM.

On to `Cc1ccc([C@@H](C)OC[C@H](O)CNC(C)(C)Cc2ccc3c(c2)CCS3(=O)=O)c2c1O[C@@H]1[C@@H](C(=O)O)[C@H]21` [Example 8-27], for which the IC50 is greater than 10000 nM.

For `C[C@@H](OC[C@H](O)CNC(C)(C)Cc1ccc2occc2c1)c1cccc2c1O[C@@H]1[C@@H](C(=O)O)[C@H]21` [Example 1-6], the IC50 was determined as 49 nM.

For `Cc1ccc([C@@H](C)OC[C@H](O)CNC(C)(C)Cc2ccc(Cl)c(Cl)c2)c2c1O[C@@H]1[C@@H](C(=O)O)[C@H]21` [Example 8-15], the IC50 is 14 nM.

On to `C[C@@H](OC[C@H](O)CNC(C)(C)Cc1ccc2ccccc2c1)c1cccc2c1[C@@H]1[C@H](O2)[C@H]1C(=O)NS(=O)(=O)C1(C)CC1` [Example 6-1], for which the IC50 was 30 nM.

Consider `C[C@@H](OC[C@H](O)CNC(C)(C)Cc1ccc2ccccc2c1)c1cccc2c1[C@H]1[C@@H](O2)[C@@H]1C(=O)O` [Example 7-1], for which the IC50 was determined as 80 nM.

As a reminder, the IC50 is the concentration needed to halve the response being measured.
